Experimental data: the supplement of paper PMC10627819

Columns and labels:
Details in all cases: main component drawn
B. subtilis 168 [1] = experiment: fitness (endpoint OD595 vs no drug) (fraction); higher = more growth
How it was run: (§1)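 Plates with 384 wells were inoculated at OD595 0.01 using 30 µl of TSB, LB Lennox or CY, or 55 µl for S. pneumoniae. Incubation was at 37 °C, with OD595 measured every 30 min for 14 h. Fitness is the stationary-phase transition optical density over the robust mean of no-drug control wells, after first-reading background subtraction; it is capped at 1.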

S. aureus Newman [2] = experiment: as above
How it was run: as §1

S. pneumoniae D39V [3] = experiment: as above
How it was run: as §1

B. subtilis 168 [4] = experiment: Bliss interaction score (quartile over a dose matrix) (fitness difference); higher = more antagonism (negative = synergy)
How it was run: (§2)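 Quartiles of the Bliss score were taken over technical, biological and donor/recipient replicates. That score is observed fitness minus the product of the single-drug fitness values, which were inferred from combination data. Fitness itself is OD595 at entry into stationary phase divided by the plate's robust no-drug mean, with a cap at 1.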

S. aureus DSM 20231 = experiment: as above
How it was run: as §2

S. aureus Newman [5] = experiment: as above
How it was run: as §2

S. pneumoniae D39V [6] = experiment: as above
How it was run: as §2
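For Bliss interaction score (quartile over a dose matrix) in this document: first quartile when negative (synergy) and third quartile when positive (antagonism).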

CO/N=C(\C(=O)N[C@@H]1C(=O)N2C(C(=O)O)=C(COC(C)=O)CS[C@H]12)c1csc(N)n1 [Cefotaxime] + CC(C1CCC(C(O1)OC2C(CC(C(C2O)OC3C(C(C(CO3)(C)O)NC)O)N)N)N)NC [Gentamicin]
one replicate
Details | fitness
B. subtilis 168 [1], first compound 0.00775 µg/mL, partner 0.0625 µg/mL | 0.66
B. subtilis 168 [1], first compound 0.00775 µg/mL, partner 0.125 µg/mL | 0.0541
B. subtilis 168 [1], first compound 0.00775 µg/mL, partner 0.25 µg/mL | 0.0723
B. subtilis 168 [1], first compound 0.0155 µg/mL, partner 0.0625 µg/mL | 0.16
B. subtilis 168 [1], first compound 0.0155 µg/mL, partner 0.125 µg/mL | 0.0431
B. subtilis 168 [1], first compound 0.0155 µg/mL, partner 0.25 µg/mL | 0.0419
B. subtilis 168 [1], first compound 0.031 µg/mL, partner 0.0625 µg/mL | 0.0439
B. subtilis 168 [1], first compound 0.031 µg/mL, partner 0.125 µg/mL | 0.0439
B. subtilis 168 [1], first compound 0.031 µg/mL, partner 0.25 µg/mL | 0.0452
B. subtilis 168 [1], first compound 0.0625 µg/mL, partner 0.0625 µg/mL | 0.754
B. subtilis 168 [1], first compound 0.0625 µg/mL, partner 0.125 µg/mL | 0.701
B. subtilis 168 [1], first compound 0.0625 µg/mL, partner 0.25 µg/mL | 0.155
B. subtilis 168 [1], first compound 0.125 µg/mL, partner 0.0625 µg/mL | 0.65
B. subtilis 168 [1], first compound 0.125 µg/mL, partner 0.125 µg/mL | 0.449
B. subtilis 168 [1], first compound 0.125 µg/mL, partner 0.25 µg/mL | 0.103
B. subtilis 168 [1], first compound 0.25 µg/mL, partner 0.0625 µg/mL | 0.581
B. subtilis 168 [1], first compound 0.25 µg/mL, partner 0.125 µg/mL | 0.22
B. subtilis 168 [1], first compound 0.25 µg/mL, partner 0.25 µg/mL | 0.129
S. aureus Newman [2], first compound 0.039 µg/mL, partner 0.5 µg/mL | 0.79
S. aureus Newman [2], first compound 0.039 µg/mL, partner 1 µg/mL | 0.857
S. aureus Newman [2], first compound 0.039 µg/mL, partner 2 µg/mL | 0.951
S. aureus Newman [2], first compound 0.078 µg/mL, partner 0.375 µg/mL | 0.757
S. aureus Newman [2], first compound 0.078 µg/mL, partner 0.5 µg/mL | 0.821
S. aureus Newman [2], first compound 0.078 µg/mL, partner 0.75 µg/mL | 0.772
S. aureus Newman [2], first compound 0.078 µg/mL, partner 1 µg/mL | 0.8
S. aureus Newman [2], first compound 0.078 µg/mL, partner 1.5 µg/mL | 0.759
S. aureus Newman [2], first compound 0.078 µg/mL, partner 2 µg/mL | 0.977
S. aureus Newman [2], first compound 0.156 µg/mL, partner 0.375 µg/mL | 0.52
S. aureus Newman [2], first compound 0.156 µg/mL, partner 0.5 µg/mL | 0.744
S. aureus Newman [2], first compound 0.156 µg/mL, partner 0.75 µg/mL | 0.533
S. aureus Newman [2], first compound 0.156 µg/mL, partner 1 µg/mL | 0.763
S. aureus Newman [2], first compound 0.156 µg/mL, partner 1.5 µg/mL | 0.595
S. aureus Newman [2], first compound 0.156 µg/mL, partner 2 µg/mL | 0.872
S. aureus Newman [2], first compound 0.312 µg/mL, partner 0.375 µg/mL | 0.345
S. aureus Newman [2], first compound 0.312 µg/mL, partner 0.75 µg/mL | 0.389
S. aureus Newman [2], first compound 0.312 µg/mL, partner 1.5 µg/mL | 0.399
S. aureus Newman [2], first compound 0.625 µg/mL, partner 0.375 µg/mL | 0.0576
S. aureus Newman [2], first compound 0.625 µg/mL, partner 0.75 µg/mL | 0.0523
S. aureus Newman [2], first compound 0.625 µg/mL, partner 1.5 µg/mL | 0.0345
S. aureus Newman [2], first compound 1.25 µg/mL, partner 0.375 µg/mL | 0.0504
S. aureus Newman [2], first compound 1.25 µg/mL, partner 0.75 µg/mL | 0.0617
S. aureus Newman [2], first compound 1.25 µg/mL, partner 1.5 µg/mL | 0.0569
S. aureus Newman [2], first compound 2.5 µg/mL, partner 0.375 µg/mL | 0.0422
S. aureus Newman [2], first compound 2.5 µg/mL, partner 0.75 µg/mL | 0.074
S. aureus Newman [2], first compound 2.5 µg/mL, partner 1.5 µg/mL | 0.0764

Details | fitness
B. subtilis 168 [1], first compound 0.5 µg/mL, partner 0.0625 µg/mL | 0.155
B. subtilis 168 [1], first compound 0.5 µg/mL, partner 0.125 µg/mL | 0.055
B. subtilis 168 [1], first compound 0.5 µg/mL, partner 0.25 µg/mL | 0.0842
B. subtilis 168 [1], first compound 1 µg/mL, partner 0.0625 µg/mL | 0.0509
B. subtilis 168 [1], first compound 1 µg/mL, partner 0.125 µg/mL | 0.04
B. subtilis 168 [1], first compound 1 µg/mL, partner 0.25 µg/mL | 0.0527
B. subtilis 168 [1], first compound 2 µg/mL, partner 0.0625 µg/mL | 0.0909
B. subtilis 168 [1], first compound 2 µg/mL, partner 0.125 µg/mL | 0.0759
B. subtilis 168 [1], first compound 2 µg/mL, partner 0.25 µg/mL | 0.0872
S. aureus Newman [2], first compound 0.625 µg/mL, partner 0.5 µg/mL | 0.389
S. aureus Newman [2], first compound 0.625 µg/mL, partner 1 µg/mL | 0.44
S. aureus Newman [2], first compound 0.625 µg/mL, partner 2 µg/mL | 0.397
S. aureus Newman [2], first compound 1.25 µg/mL, partner 0.5 µg/mL | 0.0594
S. aureus Newman [2], first compound 1.25 µg/mL, partner 1 µg/mL | 0.0679
S. aureus Newman [2], first compound 1.25 µg/mL, partner 2 µg/mL | 0.0372
S. aureus Newman [2], first compound 2.5 µg/mL, partner 0.5 µg/mL | 0.0199
S. aureus Newman [2], first compound 2.5 µg/mL, partner 1 µg/mL | 0.0366
S. aureus Newman [2], first compound 2.5 µg/mL, partner 2 µg/mL | 0.0507
S. pneumoniae D39V [3], first compound 0.0018 µg/mL, partner 2 µg/mL | 0.999
S. pneumoniae D39V [3], first compound 0.0018 µg/mL, partner 4 µg/mL | 0.988
S. pneumoniae D39V [3], first compound 0.0018 µg/mL, partner 8 µg/mL | 0.971
S. pneumoniae D39V [3], first compound 0.0035 µg/mL, partner 2 µg/mL | 0.967
S. pneumoniae D39V [3], first compound 0.0035 µg/mL, partner 4 µg/mL | 0.956
S. pneumoniae D39V [3], first compound 0.0035 µg/mL, partner 8 µg/mL | 0.917
S. pneumoniae D39V [3], first compound 0.007 µg/mL, partner 2 µg/mL | 0.895
S. pneumoniae D39V [3], first compound 0.007 µg/mL, partner 4 µg/mL | 0.896
S. pneumoniae D39V [3], first compound 0.007 µg/mL, partner 8 µg/mL | 0.867

Details | Bliss interaction score
B. subtilis 168 [4] | -0.0898
S. aureus DSM 20231 | 0.0541
S. aureus Newman [5] | 0.0788
S. pneumoniae D39V [6] | 0.0656
